Source: PubChem BioAssay (NCI)
Where “and” joins values, the source holds several entries; their conditions need not be identical. Equal entries are not always repeated.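 Growth conditions: 96-well plates. Treatment: test compound, 48 hours, 5 concentrations. Analysis: linear interpolation between bracketing concentrations; unreached endpoints set to highest concentration. GI50 = concentration required for 50% inhibition of growth. At the TGI there is no net growth.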

Tests used:
Experiment in all cases: DTP human tumour cell line panel, 48 h
OVCAR-3 ovarian = system: OVCAR-3 ovarian
UO-31 renal = system: UO-31 renal
CAKI-1 renal = system: CAKI-1 renal
K-562 leukemia = system: K-562 leukemia
ACHN renal = system: ACHN renal
UACC-257 melanoma = system: UACC-257 melanoma
MALME-3M melanoma = system: MALME-3M melanoma
NCI-H522 lung = system: NCI-H522 lung
SK-OV-3 ovarian = system: SK-OV-3 ovarian
HOP-92 NSCLC = system: HOP-92 NSCLC

SMILES | GI50 (OVCAR-3 ovarian) | TGI (OVCAR-3 ovarian) | GI50 (UO-31 renal) | TGI (UO-31 renal) | GI50 (CAKI-1 renal) | TGI (CAKI-1 renal) | GI50 (K-562 leukemia) | TGI (K-562 leukemia) | GI50 (ACHN renal) | TGI (ACHN renal) | GI50 (UACC-257 melanoma) | TGI (UACC-257 melanoma) | GI50 (MALME-3M melanoma) | TGI (MALME-3M melanoma) | GI50 (NCI-H522 lung) | TGI (NCI-H522 lung) | GI50 (SK-OV-3 ovarian) | TGI (SK-OV-3 ovarian) | GI50 (HOP-92 NSCLC) | TGI (HOP-92 NSCLC)
Cc1cc(N2CCN(C)CC2)nc(NCc2cc(Nc3ccnc4cc(Cl)ccc34)ccc2F)n1 | 2 µM | 4.15 µM | 1.76 µM | 3.72 µM | 2.68 µM | 8.61 µM | 1.9 µM | 5.7 µM | 1.88 µM | 3.45 µM | 2.11 µM | 3.9 µM | 2.08 µM | 3.89 µM | 1.92 µM | 3.88 µM | 2.64 µM | 6.27 µM | – | –
Cc1ccc(C2CC(c3ccc([N+](=O)[O-])cc3)=Nc3ccccc3S2)cc1 (centres undefined) | – | 99.7 µM | – | > 100 µM | – | > 100 µM | – | 41.5 µM | – | > 100 µM | – | > 100 µM | – | > 100 µM | – | 73.3 µM | – | > 100 µM | – | –
COc1cccc(C(=O)Nc2ccc(CN3CCc4nc5cc(OC)c(OC)cc5cc43)cc2)c1 | – | – | 3.36 µM | 60.1 µM | 3 µM | 20.9 µM | 3.72 µM | 15.5 µM | 3.08 µM | > 100 µM | 5.47 µM | 92.6 µM | 4.91 µM | 27.6 µM | 3.94 µM | 18.3 µM | 18.5 µM | > 100 µM | 1.92 µM | 7.45 µM
N=CCCN(CCC=N)c1ccc(/C=C2\CN(NC(=O)c3ccc(Cl)cc3)C(c3ccccc3)=N2)cc1 | – | > 100 µM | – | > 100 µM | – | > 100 µM | – | > 100 µM | – | > 100 µM | – | > 100 µM | – | > 100 µM | – | – | – | > 100 µM | – | > 100 µM
C=C[C@@]1(C)CCC2(O)C(CCC3C2(C)CCC[C@@]3(C)COC(=O)CC(=O)OC)C1 (some centres undefined) | – | 32.5 µM | – | > 100 µM | – | > 100 µM | – | 63.5 µM | – | > 100 µM | – | 36.5 µM | – | 32.3 µM | – | 32.4 µM | – | > 100 µM | – | –
[C-]#[O+].[Cl][Sn]([Cl])[Cl].[Cl][Sn]([Cl])[Cl].[Pt].c1ccc([PH+](c2ccccc2)c2ccccc2)cc1.c1ccc([PH+](c2ccccc2)c2ccccc2)cc1 | 62.1 µM | > 100 µM | > 100 µM | > 100 µM | – | – | 34.8 µM | > 100 µM | 26.4 µM | > 100 µM | 37.7 µM | > 100 µM | 60 µM | > 100 µM | 23.3 µM | 56.7 µM | 48.2 µM | > 100 µM | 17.1 µM | 46.8 µM
CC1=CCC2(C#N)CCC1C2O (centres undefined) | – | > 100 µM | – | > 100 µM | – | > 100 µM | – | > 100 µM | – | > 100 µM | – | > 100 µM | – | > 100 µM | – | > 100 µM | – | > 100 µM | – | –
O=C(CC(=O)C(=O)Nc1ccccc1)CC(c1ccccc1)c1c(O)c2ccccc2oc1=O (centres undefined) | – | > 100 µM | – | > 100 µM | – | > 100 µM | – | > 100 µM | – | > 100 µM | – | – | – | > 100 µM | – | > 100 µM | – | > 100 µM | – | > 100 µM
Cc1nc2ccccc2c(=O)n1/N=C(\N=Nc1cc(Cl)ccc1Cl)c1cccc(-c2ccco2)c1 | – | > 100 µM | – | > 100 µM | – | > 100 µM | – | > 10 µM | – | > 100 µM | – | > 100 µM | – | > 100 µM | – | – | – | > 100 µM | – | 99.5 µM
Cc1onc(-c2c(F)cccc2Cl)c1-c1ncc(-c2ccc(Cl)cc2)o1 | 8.84 µM | > 100 µM | 5.47 µM | > 100 µM | 4.7 µM | > 100 µM | 4.35 µM | > 100 µM | 5.15 µM | > 100 µM | 3.25 µM | > 100 µM | 6.43 µM | > 100 µM | 3.79 µM | > 100 µM | 9.33 µM | > 100 µM | – | –
Cc1cc2cccnc2c2ncccc12 | 1.75 µM | 10.3 µM | 0.411 µM | 4.15 µM | 0.244 µM | 0.758 µM | – | – | 0.46 µM | 7.51 µM | 2.14 µM | 6.94 µM | 2.17 µM | 7.21 µM | 3.52 µM | 17.9 µM | 0.756 µM | 8.42 µM | 2.38 µM | 17.2 µM
C/C=C(\C)c1cc(=O)c2c(C)cc3c(c2o1)C(=O)c1c(O)c(C2CC(C)(N(C)C)C(O)C(C)O2)cc(C2CC(N(C)C)C(O)C(C)O2)c1C3=O (centres undefined) | – | – | 0.531 µM and 3.98 µM | – | 0.273 µM and 2.08 µM | 5.99 µM | – | > 53.6 µM | – | 0.504 µM | 0.505 µM and 2.59 µM | 1.9 µM and 8.55 µM | – | – | – | – | – | – | – | –
CN(Cc1cnc(N)nc1N)c1ccc(C(=O)O)cc1 | > 100 µM | > 100 µM | > 100 µM | > 100 µM | > 100 µM | > 100 µM | – | – | > 100 µM | > 100 µM | > 100 µM | > 100 µM | > 100 µM | > 100 µM | > 100 µM | > 100 µM | > 100 µM | > 100 µM | > 100 µM | > 100 µM
CN(CCC#N)c1ccc(/C=C(\C#N)c2cccc(C(F)(F)F)c2)cc1 | 4.29 µM | > 100 µM | 2.27 µM | > 100 µM | 4.24 µM | > 100 µM | 2.69 µM | > 100 µM | 4.13 µM | > 100 µM | – | – | 3.59 µM | > 100 µM | – | – | 36.7 µM | > 100 µM | 3.01 µM | 66.7 µM
CNC(=S)N/N=C1\CC(c2ccccc2)Oc2ccccc21 (centres undefined) | – | > 100 µM | – | > 100 µM | – | > 100 µM | – | > 100 µM | – | > 100 µM | – | – | – | > 100 µM | – | > 100 µM | – | > 100 µM | – | > 100 µM
COc1ccc(Cl)cc1Nc1nc(C(F)(F)F)ccc1C(=O)N/N=C/c1ccc([N+](=O)[O-])cc1 | 1.25 µM | 3.78 µM | 1.77 µM | 5.97 µM | 1.46 µM | 4.74 µM | 2.95 µM | 12.6 µM | 2.18 µM | 5.42 µM | 2.92 µM | 8.7 µM | 2.3 µM | 5.59 µM | 1.62 µM | 4.77 µM | 1.73 µM | 5.77 µM | – | –
CC1(C)C(c2ccccc2)=NN(O)c2ccccc21 | – | > 100 µM | – | – | – | > 100 µM | – | > 100 µM | – | – | – | > 100 µM | – | > 100 µM | – | > 100 µM | – | > 100 µM | – | –
